Test results taken from patent US9309263B2, “Fused multi-cyclic sulfone compounds as inhibitors of beta-secretase and methods of use thereof” (AMGEN INC., priority 2013, dated 2016).
Like-named read-outs stand apart in the source and are kept apart here.

Experiments:
Cathepsin D (Cat D) = Cathepsin D (Cat D) (Homo sapiens, UniProt P07339); assay: In vitro enzymatic Cathepsin D (Cat D) FRET assay; assay type: biochemical
How it was run: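 FRET peptide substrate (20 nM) is cleaved by CHO-derived recombinant enzyme (9 nM) for 1 h after a 1 h inhibitor pre-incubation, at pH 3.5 in citrate buffer with 5 mM CHAPS and 10% DMSO. Tris addition ends the reaction; fluorescence measured at 500 nm excitation, 580 nm emission.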

[1] = test system: Aβ 40 in conditioned medium of cells stably expressing Amyloid Precursor Protein (APP); assay: In vitro BACE cell-based assay (Aβ 40 sandwich ELISA); conditions: Homo sapiens, HEK293
How it was run: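 Aβ40 in conditioned medium measured by pAb40/biotin-6E10 sandwich ELISA with time-resolved europium fluorescence, after 24 h exposure of stable APP cells to compounds (10-point series starting 100 μM or 10 μM; 0.1% DMSO). IC50 fitted from percent of control against concentration.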

[2] = target: Beta Secretase enzyme (BACE) (Homo sapiens, UniProt P56817); assay: In vitro enzymatic BACE FRET assay; assay type: biochemical; conditions: read-out: BACE1 FRET assay IC50
How it was run: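 Cleavage of a quenched 50 nM FRET peptide substrate, read as fluorescence (excitation 488 nm, […]) after 1 h and Tris quench to neutrality. Buffer: 0.05 M acetate pH 4.2 with 10% DMSO and 100 uM genapol. Inhibitor dilutions were pre-incubated 1 h with 0.2 nM enzyme.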

[3] = Cathepsin D FRET assay, read-out: CatD IC50
[4] = average IC50, HEK cell assay, Aβ 40 readout
[5] = average IC50, in vitro enzymatic BACE FRET assay

Sequence of Cathepsin D (Cat D) (P07339 65-412, species assumed): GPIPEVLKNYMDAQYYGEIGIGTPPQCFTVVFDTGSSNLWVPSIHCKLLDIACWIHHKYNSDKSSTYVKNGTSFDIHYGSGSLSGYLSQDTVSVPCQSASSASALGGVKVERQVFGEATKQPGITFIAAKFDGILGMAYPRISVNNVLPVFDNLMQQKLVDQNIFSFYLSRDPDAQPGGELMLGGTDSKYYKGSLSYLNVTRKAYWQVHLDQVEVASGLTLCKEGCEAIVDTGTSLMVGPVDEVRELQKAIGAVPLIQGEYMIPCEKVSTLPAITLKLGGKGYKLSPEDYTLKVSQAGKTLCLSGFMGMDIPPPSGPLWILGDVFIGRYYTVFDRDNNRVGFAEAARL
Sequence of Beta Secretase enzyme (BACE) (P56817 46-501): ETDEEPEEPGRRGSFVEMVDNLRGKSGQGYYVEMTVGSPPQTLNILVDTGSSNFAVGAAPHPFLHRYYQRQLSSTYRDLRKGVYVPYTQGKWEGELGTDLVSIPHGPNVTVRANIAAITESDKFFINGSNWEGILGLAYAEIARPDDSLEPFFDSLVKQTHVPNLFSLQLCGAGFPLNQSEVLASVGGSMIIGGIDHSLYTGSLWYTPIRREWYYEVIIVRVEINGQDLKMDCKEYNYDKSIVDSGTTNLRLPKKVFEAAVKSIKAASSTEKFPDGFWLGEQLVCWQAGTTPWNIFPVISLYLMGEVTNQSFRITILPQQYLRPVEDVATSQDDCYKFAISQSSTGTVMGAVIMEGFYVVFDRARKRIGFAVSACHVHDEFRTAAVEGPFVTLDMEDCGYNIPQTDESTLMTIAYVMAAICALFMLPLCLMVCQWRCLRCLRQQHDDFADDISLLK

Row | SMILES | IC50 (Cathepsin D (Cat D); read-out: CatD IC50) | IC50 ([1]; HEK cell, average IC50) | IC50 ([2]; average IC50) | IC50 (Cathepsin D (Cat D); [3]) | IC50 [1, 4] | IC50 [2, 5] | IC50 ([1]; HEK cells, average IC50) | IC50 (Cathepsin D (Cat D); text summary referring to data in Table 2)
1 | Cc1cc(Cl)cnc1C(=O)Nc1ccc2c(c1)[C@@]1(C)N=C(N)C(C)(C)S(=O)(=O)[C@]1(C)CCO2 [Example 27, N-((4aR,11bR)-2-amino-3,3,4a,11b-tetramethyl-4,4-dioxido-4a,5,6,11b-tetrahydro-3H-[1]benzoxepino[4,5-b][1,4]thiazin-10-yl)-5-chloro-3-methyl-2-pyridinecarboxamide] | 553 µM | 0.264 µM | 0.15 µM | – | – | – | – | –
2 | C#CCOc1ccc(C(=O)Nc2ccc3c(c2)[C@@]2(C)N=C(N)C(C)(C)S(=O)(=O)[C@@H]2C[C@H](C)O3)nc1 [Example 145, N-((4aR,6S,11bR)-2-amino-3,3,6,11b-tetramethyl-4,4-dioxido-4a,5,6,11b-tetrahydro-3H-[1]benzoxepino[4,5-b][1,4]thiazin-10-yl)-5-(2-propyn-1-yloxy)-2-pyridinecarboxamide] | – | – | – | 329 µM | 0.002 µM | 0.001 µM | – | –
3 | Cc1cc(OC(F)F)cnc1C(=O)Nc1ccc2c(c1)[C@@]1(C)N=C(N)C(C)(C)S(=O)(=O)[C@H]1CCC2 [Example 39, N-((4aS,11bR)-2-amino-3,3,11b-trimethyl-4,4-dioxido-3,4a,5,6,7,11b-hexahydrobenzo[3,4]cyclohepta[1,2-b][1,4]thiazin-10-yl)-5-(difluoromethoxy)-3-methyl-2-pyridinecarboxamide] | > 400 µM | 0.022 µM | 0.142 µM | – | – | – | – | –
4 | CC#C[C@@H](C)Oc1cnc2c(Nc3ccc4c(c3)[C@@]3(C)N=C(N)C(C)(C)S(=O)(=O)[C@@H]3CCO4)ncc(F)c2c1 (single isomer, unassigned) [Example 71] | 186 µM | 2.36 µM | 0.12 µM | – | – | – | – | –
5 | CC1(C)C(N)=N[C@]2(C)c3cc(Nc4ncnc5cc(Cl)cnc45)ccc3OCC[C@H]2S1(=O)=O [Example 176, (4aR,11bR)-N^~10^~-(7-chloropyrido[3,2-d]yrimidin-4-yl)-3,3,11b-trimethyl-4a,5,6,11b-tetrahydro-3H-[1]benzoxepino[4,5-b][1,4]thiazine-2,10-diamine 4,4-dioxide] | 186 µM | – | 0.008 µM | – | – | – | 0.011 µM | –
6 | CC1(C)C(N)=N[C@]2(CF)c3cc(NC(=O)c4cnc(C(F)(F)F)cn4)ccc3OCC[C@@H]2S1(=O)=O [Example 120, N-((4aS,11bS)-2-amino-11b-(fluoromethyl)-3,3-dimethyl-4,4-dioxido-4a,5,6,11b-tetrahydro-3H-[1]benzoxepino[4,5-b][1,4]thiazin-10-yl)-5-(trifluoromethyl)-2-pyrazinecarboxamide] | – | – | – | 752 µM | 0.148 µM | 0.082 µM | – | –
7 | Cc1cnc(COc2cnc(C(=O)Nc3ccc4c(c3)[C@@]3(C)N=C(N)C(C)(C)S(=O)(=O)[C@@H]3C[C@H](C)O4)cn2)o1 [Example 80, N-((4aR,6S,11bR)-2-amino-3,3,6,11b-tetramethyl-4,4-dioxido-4a,5,6,11b-tetrahydro-3H-[1]benzoxepino[4,5-b][1,4]thiazin-10-yl)-5-((5-methyl-1,3-oxazol-2-yl)methoxy)-2-pyrazinecarboxamide] | 1490 µM | 0.001 µM | 0.004 µM | – | – | – | – | > 1200 µM
8 | Cc1cc(Cl)cnc1C(=O)Nc1ccc2c(c1)[C@@]1(C)N=C(N)C(C)(C)S(=O)(=O)[C@@]1(F)CCO2 [Example 87, N-((4aS,11bR)-2-amino-4a-fluoro-3,3,11b-trimethyl-4,4-dioxido-4a,5,6,11b-tetrahydro-3H-[1]benzoxepino[4,5-b][1,4]thiazin-10-yl)-5-chloro-3-methyl-2-pyridinecarboxamide] | – | – | – | 279 µM | 0.008 µM | 0.002 µM | – | –
9 | CC1(C)C[C@@H]2[C@](C)(N=C(N)C(C)(C)S2(=O)=O)c2cc(NC(=O)c3ncc(Cl)cc3Cl)ccc2O1 [Example 128, N-((4aR,11bR)-2-amino-3,3,6,6,11b-pentamethyl-4,4-dioxido-4a,5,6,11b-tetrahydro-3H-[1]benzoxepino[4,5-b][1,4]thiazin-10-yl)-3,5-dichloro-2-pyridinecarboxamide] | – | – | – | 593 µM | 0.003 µM | 0.008 µM | – | –
10 | Cc1cc(C(F)(F)F)cnc1C(=O)Nc1ccc2c(c1)[C@@]1(C)N=C(N)C(C)(C)S(=O)(=O)[C@H]1CC(C)(C)O2 [Example 103, N-((4aS,11bR)-2-amino-3,3,6,6,11b-pentamethyl-4,4-dioxido-4a,5,6,11b-tetrahydro-3H-[1]benzoxepino[4,5-b][1,4]thiazin-10-yl)-3-methyl-5-(trifluoromethyl)-2-pyridinecarboxamide] | – | – | – | 143 µM | 0.023 µM | 0.018 µM | – | –

Further lines, results first:

Row | IC50 (Cathepsin D (Cat D); read-out: CatD IC50) | IC50 ([1]; HEK cell, average IC50) | IC50 ([2]; average IC50) | IC50 (Cathepsin D (Cat D); [3]) | IC50 [1, 4] | IC50 [2, 5] | IC50 ([1]; HEK cells, average IC50) | IC50 (Cathepsin D (Cat D); text summary referring to data in Table 2) | SMILES
11 | 340 µM | 0.004 µM | 0.011 µM | – | – | – | – | – | COc1cnc(C(=O)Nc2ccc3c(c2)[C@@]2(C)N=C(N)C(C)(C)S(=O)(=O)[C@@H]2CCC3)cn1 [Example 10, N-((4aR,11bR)-2-amino-3,3,11b-trimethyl-4,4-dioxido-3,4a,5,6,7,11b-hexahydrobenzo[3,4]cyclohepta[1,2-b][1,4]thiazin-10-yl)-5-methoxy-2-pyrazinecarboxamide]
12 | 1240 µM | 0.007 µM | 0.017 µM | – | – | – | – | – | COc1cnc(C(=O)Nc2ccc3c(c2)[C@@]2(C)N=C(N)C(C)(C)S(=O)(=O)[C@@H]2CCO3)c(C)n1 [Example 22, N-((4aR,11bR)-2-amino-3,3,11b-trimethyl-4,4-dioxido-4a,5,6,11b-tetrahydro-3H-[1]benzoxepino[4,5-b][1,4]thiazin-10-yl)-5-methoxy-3-methyl-2-pyrazinecarboxamide]
13 | 403 µM | – | 0.008 µM | – | – | – | 0.004 µM | – | Cc1cc(Cl)cnc1C(=O)Nc1ccc2c(c1)[C@@]1(C)N=C(N)C(C)(C)S(=O)(=O)[C@H]1CC(C)(C)O2 [Example 184, N-((4aS,11bR)-2-amino-3,3,6,6,11b-pentamethyl-4,4-dioxido-4a,5,6,11b-tetrahydro-3H-[1]benzoxepino[4,5-b][1,4]thiazin-10-yl)-5-chloro-3-methyl-2-pyridinecarboxamide]
14 | 377 µM | 0.022 µM | 0.019 µM | – | – | – | – | – | Cc1cc(Cl)cnc1C(=O)Nc1cnc2c(c1)[C@@]1(C)N=C(N)C(C)(C)S(=O)(=O)[C@H]1CCO2 [Example 20, N-((4aS,11bR)-2-amino-3,3,11b-trimethyl-4,4-dioxido-4a,5,6,11b-tetrahydro-3H-pyrido[3′,2′:6,7]oxepino[4,5-b][1,4]thiazin-10-yl)-5-chloro-3-methyl-2-pyridinecarboxamide]
15 | – | – | – | 1280 µM | 0.009 µM | 0.003 µM | – | – | Cc1cc(Cl)cnc1C(=O)Nc1ccc2c(c1)[C@@]1(CF)N=C(N)C(C)(C)S(=O)(=O)[C@H]1CCO2 [Example 147, N-((4aS,11bS)-2-amino-11b-(fluoromethyl)-3,3-dimethyl-4,4-dioxido-4a,5,6,11b-tetrahydro-3H-[1]benzoxepino[4,5-b][1,4]thiazin-10-yl)-5-chloro-3-methyl-2-pyridinecarboxamide]
16 | – | – | – | 2070 µM | 0.006 µM | 0.002 µM | – | – | Cc1cc(C#N)cnc1C(=O)Nc1ccc2c(c1)[C@@]1(CF)N=C(N)C(C)(C)S(=O)(=O)[C@H]1CCO2 [Example 153, N-((4aS,11bS)-2-amino-11b-(fluoromethyl)-3,3-dimethyl-4,4-dioxido-4a,5,6,11b-tetrahydro-3H-[1]benzoxepino[4,5-b][1,4]thiazin-10-yl)-5-cyano-3-methyl-2-pyridinecarboxamide]
17 | – | – | – | > 400 µM | 0.052 µM | 0.075 µM | – | – | COc1cnc2c(Nc3ccc4c(c3)[C@@]3(C)N=C(N)C(C)(C)S(=O)(=O)[C@H]3CCO4)nccc2n1 [Example 159, (4aS,11bR)-N^~10^~-(2-methoxypyrido[3,4-b]pyrazin-5-yl)-3,3,11b-trimethyl-4a,5,6,11b-tetrahydro-3H-[1]benzoxepino[4,5-b][1,4]thiazine-2,10-diamine 4,4-dioxide]
18 | > 400 µM | 0.016 µM | 0.036 µM | – | – | – | – | – | Cc1cc(C#N)cnc1C(=O)Nc1ccc2c(c1)[C@@]1(C)N=C(N)C(C)(C)S(=O)(=O)[C@H]1CCC2 [Example 37, N-((4aS,11bR)-2-amino-3,3,11b-trimethyl-4,4-dioxido-3,4a,5,6,7,11b-hexahydrobenzo[3,4]cyclohepta[1,2-b][1,4]thiazin-10-yl)-5-cyano-3-methyl-2-pyridinecarboxamide]
19 | – | – | – | 3360 µM | 0.019 µM | 0.024 µM | – | – | Cc1cc(C(F)(F)F)cnc1C(=O)Nc1ccc2c(c1)[C@@]1(CF)N=C(N)C(C)(C)S(=O)(=O)[C@@H]1CCO2 [Example 119, N-((4aR,11bS)-2-amino-11b-(fluoromethyl)-3,3-dimethyl-4,4-dioxido-4a,5,6,11b-tetrahydro-3H-[1]benzoxepino[4,5-b][1,4]thiazin-10-yl)-3-methyl-5-(trifluoromethyl)-2-pyridinecarboxamide]
20 | 1070 µM | – | 0.006 µM | – | – | – | 0.004 µM | – | CC1(C)C(N)=N[C@]2(C)c3cc(NC(=O)c4ccc(C(F)(F)F)cn4)ccc3OCC[C@H]2S1(=O)=O [Example 165, N-((4aR,11bR)-2-amino-3,3,11b-trimethyl-4,4-dioxido-4a,5,6,11b-tetrahydro-3H-[1]benzoxepino[4,5-b][1,4]thiazin-10-yl)-5-(trifluoromethyl)-2-pyridinecarboxamide]
